Data from US10238638B2, “Benzothiazole and benzothiophene compounds” (Bristol-Myers Squibb Company, priority 2015, dated 2019).

Molecular target: PAR4 (Homo sapiens (Human), UniProt Q96RI0)
Experiment: FLIPR assay in PAR4-expressing HEK293 cells (calcium mobilization)
Format: cell-based
Conditions: H-Ala-Phe(4-F)-Pro-Gly-Trp-Leu-Val-Lys-Asn-Gly-NH2-induced calcium mobilization, PAR4 antagonist activity
Description: The FLIPR assay is an exemplary in vitro assay for measuring the activity of the PAR4 antagonists of the present invention. In this assay, intracellular calcium mobilization is induced in PAR4 expressing cells by a PAR4 agonist and calcium mobilization is monitored.
HEK293 cells stably expressing PAR4 were generated by a standard method of transfection of human PAR4 (F2R23) cDNA expression vector and selected based on PAR4 protein expression or mRNA expression. […] Therefore, the same cells were also used to determine selectivity against PAR1 and agonist activity for both receptors.
FLIPR-based calcium mobilization assay in HEK293 cells was used to measure PAR4 antagonism, agonism, and selectivity against PAR1. […] Counter screens for agonist activity and PAR1 antagonist activity were also performed. Briefly, PAR1/PAR4-expressing HEK293 cells were grown in DMEM (Life Technology, Grand Island, N.Y.) containing 10% heat-inactivated FBS, 1% Penicillin-Streptomycin, 10 μg/mL blasticidin, and 100 μg/mL Zeocin at 37° C. with 5% CO2. Cells were plated overnight prior to the experiment in a black 384-well Purecoat Amine clear bottom plate (Becton Dickinson Biosciences, San Jose, Calif.) at 10,000 cells/well in 30 μL growth medium and incubated in a humidified chamber at 37° C. with 5% CO2 overnight. Prior to compound addition, the cell medium was replaced with 40 μL of 1× calcium and magnesium-containing Hank's Balanced Saline Solution (HBSS) (with 20 mM HEPES) and 1:1000 diluted fluorescent calcium indicator (Codex Biosolutions, Gaithersburg, Md.). After a 30 minute incubation period at 37° C. and a further 30 minute incubation and equilibration period at room temperature, 20 μL test compound (diluted in 1×HBSS buffer) was added at various concentrations at 0.17% dimethyl sulfoxide (DMSO) final concentration. Changes in fluorescence intensity were measured using a Functional Drug Screening System (FDSS, Hamamatsu, Japan) to determine agonist activities. The cells were then incubated for 30 minutes at room temperature followed by addition of 20 μL of agonist peptide for antagonist activity measurement. […] Compound potency was derived from 11-point concentration-response curves.

Chain of PAR4 (Q96RI0 18-385): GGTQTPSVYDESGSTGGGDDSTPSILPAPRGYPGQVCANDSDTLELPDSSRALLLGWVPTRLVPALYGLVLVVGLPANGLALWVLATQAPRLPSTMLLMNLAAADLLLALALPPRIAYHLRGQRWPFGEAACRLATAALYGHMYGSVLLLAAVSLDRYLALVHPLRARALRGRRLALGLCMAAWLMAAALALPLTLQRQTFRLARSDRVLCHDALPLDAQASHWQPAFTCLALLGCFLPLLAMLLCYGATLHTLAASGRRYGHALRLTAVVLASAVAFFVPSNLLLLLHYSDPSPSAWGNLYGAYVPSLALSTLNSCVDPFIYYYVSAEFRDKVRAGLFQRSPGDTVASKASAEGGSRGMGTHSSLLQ

Row | SMILES | IC50
1 | COc1cc(OCc2csc(-c3ccc(C(=O)N(C)[C@H]4CCOC4)cc3)n2)c2sc(-c3cn4nc(C5CC5)sc4n3)nc2c1 [Example 25, (S)-4-(4-(((2-(2-Cyclopropylimidazo[2,1-b][1,3,4]thiadiazol-6-yl)-5-methoxybenzo[d]thiazol-7-yl)oxy)methyl)thiazol-2-yl)-N-methyl-N-(tetrahydrofuran-3-yl)benzamide] | 2600 nM
2 | COc1cc(OCc2csc(-c3ccc(C(=O)N(C)C)cc3)n2)c2sc(-c3cn4nc(C)ccc4n3)nc2c1 [Example 44, 4-(4-(((5-Methoxy-2-(6-methylimidazo[1,2-b]pyridazin-2-yl)benzo[d]thiazol-7-yl)oxy)methyl)thiazol-2-yl)-N,N-dimethylbenzamide] | 2600 nM
3 | CCc1nn2cc(-c3nc4cc(OC)cc(OCc5csc(-c6ccc(C(=O)OC(C)(C)C)cc6)n5)c4s3)nc2s1 [Example 31, tert-Butyl 4-(4-(((2-(2-ethylimidazo[2,1-b][1,3,4]thiadiazol-6-yl)-5-methoxybenzo[d]thiazol-7-yl)oxy)methyl)thiazol-2-yl)benzoate] | 2000 nM
4 | COc1cc(OCc2csc(-c3ccc(C(=O)O)cc3)n2)c2sc(-c3cn4nc(C)sc4n3)nc2c1 [Example 2, 4-(4-(((5-Methoxy-2-(2-methylimidazo[2,1-b][1,3,4]thiadiazol-6-yl)benzo[d]thiazol-7-yl)oxy)methyl)thiazol-2-yl)benzoic acid] | 45000 nM
5 | COc1cc(OCc2csc(-c3ccc(C(=O)N(C)C)cc3)n2)c2sc(-c3cn4nc(C5CC5)sc4n3)nc2c1 [Example 28, 4-(4-(((2-(2-Cyclopropylimidazo[2,1-b][1,3,4]thiadiazol-6-yl)-5-methoxybenzo[d]thiazol-7-yl)oxy)methyl)thiazol-2-yl)-N,N-dimethylbenzamide] | 3700 nM
6 | COc1cc(OCc2csc(-c3ccccc3)n2)c2sc(-c3cn4nc(C)ccc4n3)nc2c1 [Example 45, 5-Methoxy-2-(6-methylimidazo[1,2-b]pyridazin-2-yl)-7-((2-phenylthiazol-4-yl)methoxy)benzo[d]thiazole] | 1800 nM
7 | COc1cc(OCc2csc(-c3ccc(C(=O)N(C)C)cc3)n2)c2sc(-c3cn4nc(C(C)(F)F)sc4n3)nc2c1 [Example 18, 4-(4-(((2-(2-(1,1-difluoroethyl)imidazo[2,1-b][1,3,4]thiadiazol-6-yl)-5-methoxybenzo[d]thiazol-7-yl)oxy)methyl)thiazol-2-yl)-N,N-dimethylbenzamide] | 5100 nM
8 | COc1cc(OCc2csc(-c3ccc(C(=O)N(C)[C@H]4CCOC4)cc3)n2)c2sc(-c3cn4nc(C)ccc4n3)nc2c1 [Example 47, (S)-4-(4-(((5-Methoxy-2-(6-methylimidazo[1,2-b]pyridazin-2-yl)benzo[d]thiazol-7-yl)oxy)methyl)thiazol-2-yl)-N-methyl-N-(tetrahydrofuran-3-yl)benzamide] | 6400 nM
9 | COc1cc(OCc2csc(N3CCOCC3)n2)c2sc(-c3cn4nc(C)ccc4n3)nc2c1 [Example 46, 4-(4-(((5-Methoxy-2-(6-methylimidazo[1,2-b]pyridazin-2-yl)benzo[d]thiazol-7-yl)oxy)methyl)thiazol-2-yl)morpholine] | 2500 nM

More lines, in order of falling IC50, values ahead:

Row | IC50 | SMILES
10 | 1800 nM | COc1cc(OCc2nc(-c3ccc(C(=O)N(C)[C@H]4CCOC4)cc3)sc2C)c2sc(-c3cn4nc(C)sc4n3)nc2c1 [Example 39, (S)-4-(4-(((5-Methoxy-2-(2-methylimidazo[2,1-b][1,3,4]thiadiazol-6-yl)benzo[d]thiazol-7-yl)oxy)methyl)-5-methylthiazol-2-yl)-N-methyl-N-(tetrahydrofuran-3-yl)benzamide]
11 | 1800 nM | COc1cc(OCc2csc(-c3ccc(C(=O)N4CC[C@@H](CO)C4)cc3)n2)c2sc(-c3cn4nc(C)sc4n3)nc2c1 [Example 8]
12 | 1700 nM | COc1cc(OCc2nc(-c3ccc(C(=O)N(C)C)cc3)sc2C)c2sc(-c3cn4nc(C)sc4n3)nc2c1 [Example 41, 4-(4-(((5-Methoxy-2-(2-methylimidazo[2,1-b][1,3,4]thiadiazol-6-yl)benzo[d]thiazol-7-yl)oxy)methyl)-5-methylthiazol-2-yl)-N,N-dimethylbenzamide]
13 | 1600 nM | COc1cc(OCc2nc(-c3ccc(C(=O)N4CCC[C@H](O)C4)cc3)sc2C)c2sc(-c3cn4nc(C)sc4n3)nc2c1 [Example 38, (S)-(3-Hydroxypiperidin-1-yl)(4-(4-(((5-methoxy-2-(2-methylimidazo[2,1-b][1,3,4]thiadiazol-6-yl)benzo[d]thiazol-7-yl)oxy)methyl)-5-methylthiazol-2-yl)phenyl)methanone]
14 | 1600 nM | COc1cc(OCc2nc(-c3ccc(C(=O)NCC(C)(C)CO)cc3)sc2C)c2sc(-c3cn4nc(C)sc4n3)nc2c1 [Example 40, N-(3-Hydroxy-2,2-dimethylpropyl)-4-(4-(((5-methoxy-2-(2-methylimidazo[2,1-b][1,3,4]thiadiazol-6-yl)benzo[d]thiazol-7-yl)oxy)methyl)-5-methylthiazol-2-yl)benzamide]
15 | 1400 nM | COc1cc(OCc2csc(-c3ccc(C(=O)N4CCOC[C@@H]4CO)cc3)n2)c2sc(-c3cn4nc(C)sc4n3)nc2c1 [Example 11, (S)-(3-(Hydroxymethyl)morpholino)(4-(4-(((5-methoxy-2-(2-methylimidazo[2,1-b][1,3,4]thiadiazol-6-yl)benzo[d]thiazol-7-yl)oxy)methyl)thiazol-2-yl)phenyl)methanone]
16 | 1200 nM | CCc1nn2cc(-c3nc4cc(OC)cc(OCc5csc(-c6ccc(C(=O)N(C)C)cc6)n5)c4s3)nc2s1 [Example 35, 4-(4-(((2-(2-Ethylimidazo[2,1-b][1,3,4]thiadiazol-6-yl)-5-methoxybenzo[d]thiazol-7-yl)oxy)methyl)thiazol-2-yl)-N,N-dimethylbenzamide]
17 | 1100 nM | COc1cc(OCc2nc(-c3ccc(C(=O)N4CCC(CCO)CC4)cc3)sc2C)c2sc(-c3cn4nc(C)sc4n3)nc2c1 [Example 42, (4-(2-Hydroxyethyl)piperidin-1-yl)(4-(4-(((5-methoxy-2-(2-methylimidazo[2,1-b][1,3,4]thiadiazol-6-yl)benzo[d]thiazol-7-yl)oxy)methyl)-5-methylthiazol-2-yl)phenyl)methanone]
18 | 920 nM | COc1cc(OCc2csc(-c3ccc(C(=O)N4CCOC[C@H]4CO)cc3)n2)c2sc(-c3cn4nc(C(C)(F)F)sc4n3)nc2c1 [Example 21, (R)-(4-(4-(((2-(2-(1,1-Difluoroethyl)imidazo[2,1-b][1,3,4]thiadiazol-6-yl)-5-methoxybenzo[d]thiazol-7-yl)oxy)methyl)thiazol-2-yl)phenyl)(3-(hydroxymethyl)morpholino)methanone]
19 | 760 nM | COc1cc(OCc2csc(-c3ccc(C(=O)N(C)C4CCOCC4)cc3)n2)c2sc(-c3cn4nc(C(C)(F)F)sc4n3)nc2c1 [Example 22, 4-(4-(((2-(2-(1,1-Difluoroethyl)imidazo[2,1-b][1,3,4]thiadiazol-6-yl)-5-methoxybenzo[d]thiazol-7-yl)oxy)methyl)thiazol-2-yl)-N-methyl-N-(tetrahydro-2H-pyran-4-yl)benzamide]
20 | 330 nM | COc1cc(OCc2csc(-c3ccc(C(=O)N4CCOC[C@H]4CO)cc3)n2)c2sc(-c3cn4nc(C)sc4n3)nc2c1 [Example 9, (R)-(3-(Hydroxymethyl)morpholino)(4-(4-(((5-methoxy-2-(2-methylimidazo[2,1-b][1,3,4]thiadiazol-6-yl)benzo[d]thiazol-7-yl)oxy)methyl)thiazol-2-yl)phenyl)methanone]
